Measured values: BindingDB's records for doi:10.1016/j.bmc.2018.09.008 (Ochanomizu University, 2018)
pIC50: −log10 of the molar value.

Assay: Antagonist activity at AR in mouse SC3 cells assessed as inhibition of DHT-induced cell proliferation after 3 days by CCK8 assay

SMILES: CN(C)c1ccc(C(=O)Nc2cccc(Oc3ccc(O)cc3)c2)cc1
- pIC50: 5.13

SMILES: COc1ccccc1C(=O)Nc1ccc(C)c(Oc2ccc(O)cc2)c1
- pIC50: 5.28

SMILES: COc1cccc(C(=O)N(C)c2ccc(Oc3ccc(O)cc3)c(C)c2)c1
- pIC50: 5.12

SMILES: COc1cccc(C(=O)Nc2ccc(Oc3ccc(O)cc3)c(Br)c2)c1
- pIC50: 5.24

SMILES: COc1cccc(C(=O)Nc2ccc(Oc3ccc(O)cc3)cc2Cl)c1
- pIC50: 5.77

SMILES: COc1cccc(C(=O)Nc2cc(Cl)c(Oc3ccc(O)cc3)c(Cl)c2)c1
- pIC50: 6.32

SMILES: COc1cccc(C(=O)Nc2ccc(Oc3cccc(O)c3)cc2)c1
- pIC50: < 5.00

SMILES: CN(C)c1ccc(C(=O)Nc2ccc(Oc3cccc(O)c3)cc2)cc1
- pIC50: 5.49

SMILES: COc1ccccc1C(=O)Nc1cccc(Oc2ccc(O)cc2)c1
- pIC50: < 5.00

SMILES: COc1ccc(C(=O)Nc2cccc(Oc3ccc(O)cc3)c2)cc1
- pIC50: < 5.00

SMILES: CN(C)c1ccccc1C(=O)Nc1cccc(Oc2ccc(O)cc2)c1
- pIC50: 5.20

SMILES: COc1ccc(C(=O)Nc2cc(Oc3ccc(O)cc3)ccc2C)cc1
- pIC50: < 5.00

SMILES: COc1ccc(C(=O)Nc2cccc(Oc3ccc(O)cc3)c2C)cc1
- pIC50: < 5.00

SMILES: COc1ccc(C(=O)Nc2ccc(C)c(Oc3ccc(O)cc3)c2)cc1
- pIC50: < 5.00

SMILES: COc1cccc(C(=O)Nc2cccc(Oc3cccc(O)c3)c2)c1
- pIC50: < 5.00

SMILES: COc1ccc(C(=O)Nc2cccc(Oc3cccc(O)c3)c2)cc1
- pIC50: < 5.00

SMILES: CN(C)c1cccc(C(=O)Nc2cccc(Oc3cccc(O)c3)c2)c1
- pIC50: < 5.00

SMILES: COc1cccc(C(=O)Nc2ccc(Oc3ccc(O)cc3)c(F)c2)c1
- pIC50: 6.40

SMILES: COc1cccc(C(=O)Nc2ccc(Oc3ccc(O)cc3)c(Cl)c2)c1
- pIC50: 6.32

SMILES: COc1cccc(C(=O)Nc2ccc(Oc3ccc(O)cc3)c(C(F)(F)F)c2)c1
- pIC50: 5.37

SMILES: COc1cccc(C(=O)Nc2ccc(Oc3ccc(O)cc3)cc2C)c1
- pIC50: 5.52

SMILES: COc1cccc(C(=O)Nc2ccc(Oc3ccc(O)cc3)cc2F)c1
- pIC50: 6.19

SMILES: COc1cccc(C(=O)Nc2ccc(Oc3ccc(O)cc3)cc2OC)c1
- pIC50: 5.47

SMILES: COc1cccc(C(=O)Nc2cc(F)c(Oc3ccc(O)cc3)c(F)c2)c1
- pIC50: 6.29

SMILES: COc1cccc(C(=O)Nc2ccc(Oc3ccc(O)cc3)c(F)c2F)c1
- pIC50: 6.28
